In article PMC7933930, “Development of a small molecule that corrects misfolding and increases secretion of Z α1‐antitrypsin” (EMBO Molecular Medicine, 2021):

Assays:
[1] = test system: CHO inducible cells expressing wild‐type M α1‐antitrypsin; assay: Tunicamycin sensitivity, cell viability (Cell Counting Kit‐8), cells expressing M α1‐antitrypsin; format: cell-based; conditions: 10 μM GSK716, cells expressing M α1‐antitrypsin, tunicamycin 36 h
Method: Figure 2 GSK716 inhibits polymerisation of Z α1‐antitrypsin in cell models of disease • A GSK716 was added to CHO‐TET‐ON‐Z‐A1AT cells (Ordóñez et al, 2013) with simultaneous induction of Z α1‐antitrypsin expression using doxycycline, and polymer load was quantified with the 2C1 monoclonal antibody that is specific to pathological polymers of α1‐antitrypsin (Miranda et al, 2010). […] Data were normalised to vehicle and a control compound from the GSK716 series at saturating concentration. […] It induced an approximately threefold increase in secreted levels of Z α1‐antitrypsin compared with vehicle control. This was apparent even after polymers had been allowed to form. Scale bar: 100 µm. Data presented as mean ± SD, n = 8 (secretion) and n = 6 (polymer inhibition). • E CHO tetracycline‐inducible cells expressing Z α1‐antitrypsin were induced with 0.5 μg/ml doxycycline for 48 h and treated with 10 μM GSK716. […] For every time point, NP‐40‐soluble and NP‐40‐insoluble fractions were separated and immunoprecipitated with the 2C1 mAb and resolved by 4–12% w/v SDS–PAGE and α1‐antitrypsin detected by immunoblotting. […] Cell viability was measured by Cell Counting Kit‐8. […] Samples were resolved by 4–12% w/v acrylamide SDS–PAGE and detected by autoradiography. • H The graphs show the effect of GSK716 on intracellular and extracellular Z α1‐antitrypsin (mean ± SEM, n = 2). […]

hERG = hERG (Homo sapiens, UniProt Q12809); assay: Off‐target panel: hERG (Barracuda); format: cell-based; conditions: Blocker, read-out: Mean (PXC50) (converted)
Method: (§1) GSK716 selectivity and PK properties were profiled in order to investigate the suitability of GSK716 for progression into in vivo studies and the potential for taking it forward as a clinical candidate for testing in humans. Since GSK716 results in loss of inhibitory activity of α1‐antitrypsin, the effect of the compound was assessed on other closely related serpins. […] Furthermore, there were no off‐target effects in a panel of assays considered predictive of known safety liabilities that precluded further development of GSK716 (Table EV1).

PXR (rat) = PXR (rat) (Rattus norvegicus, UniProt Q9R1A7); assay: Off‐target panel: PXR (rat); format: cell-based
Method: as §1

[2] = test system: Z α1‐antitrypsin secretion in CHO‐TET‐ON‐Z‐A1AT cells; assay: Secretion of Z α1‐antitrypsin from CHO‐TET‐ON‐Z‐A1AT cells (TR‐FRET); format: cell-based; conditions: n = 74, read-out: mean pEC50, secretion of Z α1‐antitrypsin (converted)
Serotonin 5HT1B = Serotonin 5HT1B (Homo sapiens, UniProt P28222); assay: Off‐target panel: Serotonin 5HT1B; format: cell-based
Method: as §1

Serotonin 5HT2A = Serotonin 5HT2A (Homo sapiens, UniProt P28223); assay: Off‐target panel: Serotonin 5HT2A (DRX); format: cell-based
Method: as §1

α1‐antichymotrypsin = α1‐antichymotrypsin (Homo sapiens, UniProt P01011); assay: Inhibitory activity of α1‐antichymotrypsin against chymotrypsin; format: biochemical
Method: Figure 5 The effect of GSK716 on serpin inhibitory activity • α1‐Antitrypsin was incubated at varying molar ratios with the model protease bovine α‐chymotrypsin, and the residual protease activity determined. The intercept of the regression with the abscissa reflects the number of molecules of α1‐antitrypsin required to inhibit one molecule of chymotrypsin in the presence (+c) and absence (−c) of 50µM GSK716. Error bars reflect ± SEM of three independent experiments. • M α1‐antitrypsin was incubated with different molar ratios of chymotrypsin and resolved by SDS–PAGE. The position of covalent α1‐antitrypsin‐chymotrypsin complex (cpx), native (nat) and cleaved (clv) is shown. • The inhibitory activity of α1‐antichymotrypsin against chymotrypsin (ach + chym), neuroserpin against trypsin (neus + tryp), and antithrombin against thrombin (atiii + thrombin) was determined in the presence and absence of GSK716. Error bars reflect ± SD of two independent experiments.
GSK716 selectivity and PK properties were profiled in order to investigate the suitability of GSK716 for progression into in vivo studies and the potential for taking it forward as a clinical candidate for testing in humans. Since GSK716 results in loss of inhibitory activity of α1‐antitrypsin, the effect of the compound was assessed on other closely related serpins. […]

Serotonin 5HT2A, sequence (P28223 whole entry): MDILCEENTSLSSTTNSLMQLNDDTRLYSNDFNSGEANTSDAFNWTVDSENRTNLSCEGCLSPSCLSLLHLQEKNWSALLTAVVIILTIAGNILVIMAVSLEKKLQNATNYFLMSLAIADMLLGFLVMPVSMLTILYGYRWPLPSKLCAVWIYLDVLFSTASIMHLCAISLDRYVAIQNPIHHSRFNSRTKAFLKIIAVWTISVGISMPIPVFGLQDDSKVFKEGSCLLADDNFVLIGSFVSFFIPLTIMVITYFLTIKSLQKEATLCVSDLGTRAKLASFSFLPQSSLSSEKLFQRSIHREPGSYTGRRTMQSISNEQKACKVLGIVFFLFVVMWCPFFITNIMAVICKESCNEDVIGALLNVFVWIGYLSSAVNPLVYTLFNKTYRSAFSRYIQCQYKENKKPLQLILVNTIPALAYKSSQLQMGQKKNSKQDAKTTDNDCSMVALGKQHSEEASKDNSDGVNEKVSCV
Serotonin 5HT1B, sequence (P28222 whole entry): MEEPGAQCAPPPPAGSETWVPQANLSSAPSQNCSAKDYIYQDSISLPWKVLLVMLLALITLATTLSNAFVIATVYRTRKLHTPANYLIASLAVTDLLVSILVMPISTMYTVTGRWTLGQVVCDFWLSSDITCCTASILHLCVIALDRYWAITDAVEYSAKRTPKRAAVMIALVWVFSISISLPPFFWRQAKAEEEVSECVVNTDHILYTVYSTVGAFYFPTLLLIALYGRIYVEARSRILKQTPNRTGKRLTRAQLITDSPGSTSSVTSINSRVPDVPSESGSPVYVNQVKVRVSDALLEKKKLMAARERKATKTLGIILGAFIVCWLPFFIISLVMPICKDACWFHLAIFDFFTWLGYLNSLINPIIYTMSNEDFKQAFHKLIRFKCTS
PXR (rat), sequence (Q9R1A7 whole entry): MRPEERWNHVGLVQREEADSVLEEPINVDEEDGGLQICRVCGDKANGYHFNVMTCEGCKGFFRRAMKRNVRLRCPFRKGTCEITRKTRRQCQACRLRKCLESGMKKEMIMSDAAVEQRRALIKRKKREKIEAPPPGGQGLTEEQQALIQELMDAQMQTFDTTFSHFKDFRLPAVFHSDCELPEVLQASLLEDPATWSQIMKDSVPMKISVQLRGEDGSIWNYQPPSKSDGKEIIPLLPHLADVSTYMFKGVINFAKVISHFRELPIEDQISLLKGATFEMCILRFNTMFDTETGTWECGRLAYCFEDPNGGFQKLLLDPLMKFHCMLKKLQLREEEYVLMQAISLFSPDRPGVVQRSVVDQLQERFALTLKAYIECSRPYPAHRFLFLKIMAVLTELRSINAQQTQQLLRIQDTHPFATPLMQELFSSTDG
hERG, sequence (Q12809 whole entry): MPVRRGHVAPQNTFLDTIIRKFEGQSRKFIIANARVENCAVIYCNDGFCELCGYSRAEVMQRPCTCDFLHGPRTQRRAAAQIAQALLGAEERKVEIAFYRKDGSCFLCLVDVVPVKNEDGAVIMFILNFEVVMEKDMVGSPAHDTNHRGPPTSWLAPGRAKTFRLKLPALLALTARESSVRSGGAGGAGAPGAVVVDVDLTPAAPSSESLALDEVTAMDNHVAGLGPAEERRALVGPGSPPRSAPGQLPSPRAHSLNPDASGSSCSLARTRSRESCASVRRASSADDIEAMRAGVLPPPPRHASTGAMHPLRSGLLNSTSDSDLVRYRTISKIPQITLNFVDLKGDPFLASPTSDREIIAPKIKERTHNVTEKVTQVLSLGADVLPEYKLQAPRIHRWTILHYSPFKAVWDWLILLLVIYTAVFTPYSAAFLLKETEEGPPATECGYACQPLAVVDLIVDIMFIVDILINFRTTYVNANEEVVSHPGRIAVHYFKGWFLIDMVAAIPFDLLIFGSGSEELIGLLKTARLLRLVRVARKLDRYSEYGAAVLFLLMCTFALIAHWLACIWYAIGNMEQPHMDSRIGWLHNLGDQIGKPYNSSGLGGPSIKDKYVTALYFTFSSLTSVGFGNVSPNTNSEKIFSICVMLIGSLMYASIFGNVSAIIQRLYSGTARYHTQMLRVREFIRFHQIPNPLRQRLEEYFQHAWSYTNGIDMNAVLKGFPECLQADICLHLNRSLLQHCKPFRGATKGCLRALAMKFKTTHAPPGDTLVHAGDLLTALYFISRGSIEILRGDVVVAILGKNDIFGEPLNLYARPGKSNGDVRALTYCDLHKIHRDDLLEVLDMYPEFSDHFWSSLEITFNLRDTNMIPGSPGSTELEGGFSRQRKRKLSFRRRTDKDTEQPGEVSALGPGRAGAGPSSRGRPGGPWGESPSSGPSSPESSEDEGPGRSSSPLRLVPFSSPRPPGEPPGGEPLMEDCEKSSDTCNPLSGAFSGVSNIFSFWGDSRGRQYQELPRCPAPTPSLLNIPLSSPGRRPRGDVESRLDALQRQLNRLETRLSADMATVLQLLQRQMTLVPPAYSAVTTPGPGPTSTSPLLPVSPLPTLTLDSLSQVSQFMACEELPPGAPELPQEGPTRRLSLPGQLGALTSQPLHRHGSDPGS
α1‐antichymotrypsin, sequence (P01011 24-423, species assumed): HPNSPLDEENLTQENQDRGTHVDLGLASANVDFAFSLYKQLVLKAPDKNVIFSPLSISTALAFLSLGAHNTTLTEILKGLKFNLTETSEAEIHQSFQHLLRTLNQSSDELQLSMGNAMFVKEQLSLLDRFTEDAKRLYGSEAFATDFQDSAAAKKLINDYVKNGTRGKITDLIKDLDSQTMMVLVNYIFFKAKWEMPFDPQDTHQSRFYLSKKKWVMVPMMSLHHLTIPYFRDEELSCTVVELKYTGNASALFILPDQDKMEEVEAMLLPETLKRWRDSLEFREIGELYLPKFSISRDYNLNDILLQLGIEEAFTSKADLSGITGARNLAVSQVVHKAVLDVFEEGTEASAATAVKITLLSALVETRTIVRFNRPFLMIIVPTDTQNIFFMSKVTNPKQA

For CCC[C@@H](NC(=O)c1cccc2c1CC(=O)N2)[C@@H](O)c1cccc(F)c1C [GSK716], the “survival with tunicamycin (cell viability)” value [1] was “no effect”, the IC50 (hERG) was 15.8 µM and the EC50 (PXR (rat)) was 12.6 µM. The EC50 [2] was 0.631 µM, the EC50 (Serotonin 5HT1B) was greater than 100 µM and the IC50 (Serotonin 5HT1B) was greater than 100 µM. The EC50 (Serotonin 5HT2A) was greater than 100 µM, the IC50 (Serotonin 5HT2A) was 63.1 µM and the “inhibitory activity of α1‐antichymotrypsin towards its cognate protease” value (α1‐antichymotrypsin) was “did not affect”.
